Measurements reported in paper PMC6441019, “Prospective discovery of small molecule enhancers of an E3 ligase-substrate interaction” (Nature Communications, 2019).

Columns and labels:
[1] = biological target: T1, S33E/S37A β-catenin peptide binding to β-TrCP (Homo sapiens, UniProt P35222+Q9Y297, S33E/S37A); test: TR-FRET binding enhancement assay, S33E/S37A peptide; conditions: 1% binding saturation
T1 construct: titrating BODIPY-FL-labeled β-catenin peptides (residues 17-48) against 300 pM β-TrCP; 6xHis-SMT3 (N, cleaved yes); made in house; host or cells: E. coli (co-expressed with BirA)
Protocol: (§1) Compounds were incubated in a 20 μl reaction volume with 300 pM biotinylated β-TrCP/Skp1 preincubated with 1.2 nM terbium-coupled streptavidin (Cisbio) and BODIPY-FL labeled β-catenin peptides (see figure legends for peptide details) in a white 384-well microplate (Perkin Elmer ProxiPlate), using a PBS buffer containing 0.01% Triton X-100 and 2 mM DTT with 2% final DMSO. […] Following 1-h incubation, plates were read for TR-FRET signal after excitation at 320 nm and read at 520 and 620 nm using an EnVision plate reader (Perkin Elmer). TR-FRET signal was calculated using a 520/620 nm ratio. Binding and enhancement data were fit to a standard Hill equation (Y = Bmin + (Bmax − Bmin)(X^h)/(X^h + EC50^h)) in Prism (GraphPad). Errors are standard error of the fit.

[2] = biological target: T2, S33E/S37A β-catenin:β-TrCP interaction (Homo sapiens, UniProt P35222+Q9Y297, S33E/S37A); test: Lysate pulldown with recombinant β-catenin (HEK293T lysate); conditions: anti-myc pulldown
T2 construct: a ternary complex with the full-length S33E/S37A β-catenin and β-TrCP in cells; evaluated for their ability to pull down endogenous β-TrCP; expressed in transfected cells; host or cells: HEK293T (transient, FuGeneHD); β-TrCP endogenous
Protocol: Lysate pulldown with recombinant β-catenin: HEK293T cells were lysed by freeze thaw in lysis buffer (1× PBS, 2 mM DTT, 0.01% Triton X-100, proteases inhibitors (Sigma, P2714 and 11836170001), phosphatase inhibitors (Sigma, P5726 and P0044), 5 nM Calyculin A (Sigma, C5552)) at 85 µL of buffer to 1 × 10^6 cells. Lysates were clarified by centrifugation at 20,000 × g for 20 min at 4 °C and the supernatant was collected for subsequent use. Purified Myc/FLAG-tagged wild-type β-catenin protein at 2 µM was pretreated with 1 µM GSK3β (EMD Millipore, 14-306), 50 nM Axin (Enzo Life Sciences, ENZ-PRT130-0020), 200 nM CK1α (Life Technologies, PV3850), and 2 mM ATP at 30 °C for 60 min. This phosphorylated β-catenin, unphosphorylated WT β-catenin, or S33E/S37A β-catenin were each diluted into lysate to 100 nM, at the indicated compound concentrations, at a final DMSO concentration of 1% DMSO. Thirty-five microliters of these mixtures were incubated over 10 µL of anti-c-myc magnetic beads (Pierce, Catalog #PI88842), with rotation, at room temperature for 2 h. Beads were then pelleted, washed twice with 200 µL cold wash buffer (1×PBS, 2 mM DTT, 0.01% TX-100, 1% DMSO) containing compound at the same incubation concentration. Washed beads were resuspended in 30 µL SDS loading dye and analyzed by western analysis.

[3] = biological target: T3, S33E/S37A mutant β-catenin (Homo sapiens, UniProt P35222+Q9Y297, S33E/S37A); test: β-catenin degradation in HEK293T cells stably expressing S33E/S37A β-catenin; type: cell-based; conditions: HEK293T stable line, 6 h, western
T3 construct: Full-length β-catenin (Myc/FLAG-tagged; Origene); expressed in transfected cells
Protocol: HEK293T cells were plated in a 10 cm dish in regular growth media (DMEM + 10% FBS) and allowed to adhere to the plate overnight. The following day, cells were transfected with S33E/S37 β-catenin using FuGeneHD transfection reagent. Transfected cells were then selected with media containing 700 μg/ml Geneticin. A pooled population of selected cells were used for all described experiments.
HEK293T cells expressing S33E/S37A β-catenin were plated in six-well plates at a density of 9 × 10^5 cells/well. The following day, cells were incubated with compounds diluted in regular growth media to the appropriate concentration. The final concentration of DMSO for all cell treatments was kept at 0.5% or less. Cell treatments with the Nedd8 inhibitor (MLN4924) and the proteasome inhibitor (MG132) were performed at a final concentration of 5 μM and 10 μM respectively. Cycloheximide treatment was performed at a final concentration of 100 μg/ml.

[4] = biological target: T4, full-length Ser33/S37A β-catenin protein ubiquitylation by SCFβ-TrCP (Homo sapiens, UniProt P35222+Q9Y297, S37A); test: In vitro ubiquitylation of full-length Ser33/S37A β-catenin protein; type: biochemical
T4 construct: 400 nM purified full-length S37A mutant β-catenin protein was ubiquitylated; 6xHis-SMT3 (N, cleaved yes); host or cells: HEK293T (β-catenin); E. coli (β-TrCP1/Skp1); E. coli or SF9 (Cul1-Rbx1)
Protocol: Four micromolar of fluorescently-labeled β-catenin peptide (residues 17–60) were ubiquitylated in a buffer containing 25 mM Tris Cl (pH 7.5), 50 mM NaCl, 5 mM MgCl2, 2 mM ATP, and 1 mM DTT at room temperature in the presence of 62.5 μM Ubiquitin, 125 nM Ube1, 1.75 μM Cdc34A, and 100 nM neddylated SCF^β-TrCP in the presence or absence of compound (as indicated). Typically, individual reaction mixes with either Ubiquitin, Ube1 and Cdc34A or β-catenin, SCF^β-TrCP and compound were preincubated and subsequently mixed to initiate β-catenin ubiquitylation. Reactions were quenched by SDS loading buffer, resolved by SDS-PAGE and imaged for fluorescence. For full length β-catenin protein ubiquitylation 400 nM β-catenin and 400 nM SCF^β-TrCP were used instead.

[5] = biological target: T5, Ser33/S37A β-catenin peptide binding to β-TrCP (Homo sapiens, UniProt P35222+Q9Y297, S37A); test: TR-FRET peptide binding assay, unphosphorylated Ser33/S37A peptide
T5 construct: titrating BODIPY-FL-labeled β-catenin peptides (residues 17-48) against 300 pM β-TrCP; 6xHis-SMT3 (N, cleaved yes); made in house; host or cells: E. coli (co-expressed with BirA)
Protocol: as §1

T4 sequence (Q9Y297 1-569 isoform Q9Y297-2, stated change not applied): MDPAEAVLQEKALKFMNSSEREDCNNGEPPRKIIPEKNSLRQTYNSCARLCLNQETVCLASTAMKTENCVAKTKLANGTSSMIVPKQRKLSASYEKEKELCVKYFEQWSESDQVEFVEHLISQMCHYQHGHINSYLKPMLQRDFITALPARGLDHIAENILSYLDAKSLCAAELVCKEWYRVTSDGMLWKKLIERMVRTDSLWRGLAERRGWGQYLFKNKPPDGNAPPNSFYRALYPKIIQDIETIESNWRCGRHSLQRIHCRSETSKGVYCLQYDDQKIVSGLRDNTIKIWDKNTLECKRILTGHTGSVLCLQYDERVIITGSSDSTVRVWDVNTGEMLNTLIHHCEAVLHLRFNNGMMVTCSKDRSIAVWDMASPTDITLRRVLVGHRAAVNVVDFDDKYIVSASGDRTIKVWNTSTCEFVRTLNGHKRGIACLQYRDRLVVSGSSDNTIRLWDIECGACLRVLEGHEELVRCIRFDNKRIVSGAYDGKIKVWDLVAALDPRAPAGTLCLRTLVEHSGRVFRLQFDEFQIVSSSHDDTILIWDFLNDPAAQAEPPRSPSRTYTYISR
T4 sequence (P63208 whole entry partner): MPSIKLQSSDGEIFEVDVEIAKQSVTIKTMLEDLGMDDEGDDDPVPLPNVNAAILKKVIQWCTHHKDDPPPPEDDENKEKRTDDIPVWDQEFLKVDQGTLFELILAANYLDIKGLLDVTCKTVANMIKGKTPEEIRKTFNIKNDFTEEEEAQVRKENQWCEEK
T4 sequence (Q13616 whole entry partner): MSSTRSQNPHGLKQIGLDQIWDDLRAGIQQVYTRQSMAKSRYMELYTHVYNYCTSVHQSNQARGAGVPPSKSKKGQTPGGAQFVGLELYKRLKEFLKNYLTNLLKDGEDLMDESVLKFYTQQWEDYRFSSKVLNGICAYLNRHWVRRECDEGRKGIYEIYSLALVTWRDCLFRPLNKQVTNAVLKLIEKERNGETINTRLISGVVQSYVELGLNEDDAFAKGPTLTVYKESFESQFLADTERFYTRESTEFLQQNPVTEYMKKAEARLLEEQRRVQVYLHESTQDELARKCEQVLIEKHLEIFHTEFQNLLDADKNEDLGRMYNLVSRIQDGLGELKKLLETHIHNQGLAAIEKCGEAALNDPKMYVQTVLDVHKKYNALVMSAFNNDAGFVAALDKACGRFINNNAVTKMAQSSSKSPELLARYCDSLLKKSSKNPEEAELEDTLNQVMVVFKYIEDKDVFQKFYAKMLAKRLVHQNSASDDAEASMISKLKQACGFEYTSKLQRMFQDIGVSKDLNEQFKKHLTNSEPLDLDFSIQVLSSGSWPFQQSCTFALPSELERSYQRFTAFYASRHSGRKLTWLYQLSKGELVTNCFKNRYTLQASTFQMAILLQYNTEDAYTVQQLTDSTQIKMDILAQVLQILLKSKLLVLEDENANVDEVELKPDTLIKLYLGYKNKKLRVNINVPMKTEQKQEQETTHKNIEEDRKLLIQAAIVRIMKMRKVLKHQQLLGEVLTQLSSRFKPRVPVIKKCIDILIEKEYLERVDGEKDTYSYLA
T4 sequence (P62877 whole entry partner): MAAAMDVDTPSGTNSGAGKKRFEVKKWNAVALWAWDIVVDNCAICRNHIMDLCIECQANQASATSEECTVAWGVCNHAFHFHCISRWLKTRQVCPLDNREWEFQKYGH
T4 sequence (Q15843 1-76 partner limits assumed): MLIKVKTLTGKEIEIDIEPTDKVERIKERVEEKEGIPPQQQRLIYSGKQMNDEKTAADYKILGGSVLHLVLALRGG
T4 sequence (P35222 whole entry S37A): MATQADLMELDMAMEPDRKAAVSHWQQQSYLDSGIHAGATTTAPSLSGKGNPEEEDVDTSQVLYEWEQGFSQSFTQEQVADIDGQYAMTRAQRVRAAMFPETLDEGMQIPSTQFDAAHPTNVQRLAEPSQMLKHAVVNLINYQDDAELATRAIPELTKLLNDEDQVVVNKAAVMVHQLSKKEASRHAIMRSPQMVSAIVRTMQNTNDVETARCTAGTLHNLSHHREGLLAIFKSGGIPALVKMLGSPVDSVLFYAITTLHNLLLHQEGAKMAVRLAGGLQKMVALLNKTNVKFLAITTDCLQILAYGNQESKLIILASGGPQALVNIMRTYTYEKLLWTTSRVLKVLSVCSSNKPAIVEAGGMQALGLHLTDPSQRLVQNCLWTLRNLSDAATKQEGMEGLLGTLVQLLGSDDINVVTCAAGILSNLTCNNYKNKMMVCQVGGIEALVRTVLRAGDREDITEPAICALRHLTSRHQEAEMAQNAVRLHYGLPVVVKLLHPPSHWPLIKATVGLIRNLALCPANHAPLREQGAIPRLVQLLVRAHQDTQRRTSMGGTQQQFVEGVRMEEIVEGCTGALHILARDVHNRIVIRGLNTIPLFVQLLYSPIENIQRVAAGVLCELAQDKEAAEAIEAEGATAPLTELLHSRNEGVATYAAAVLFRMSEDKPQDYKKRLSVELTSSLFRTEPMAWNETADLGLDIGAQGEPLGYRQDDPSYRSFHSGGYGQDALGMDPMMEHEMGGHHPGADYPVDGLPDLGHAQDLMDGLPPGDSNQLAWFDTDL
T5 sequence (Q9Y297 1-569 isoform Q9Y297-2, stated change not applied): as the sequence (Q9Y297 1-569 isoform Q9Y297-2, stated change not applied) above
T5 sequence (P63208 whole entry partner, the tested form may be a part): as the sequence (P63208 whole entry partner) above
T5 sequence (P35222 17-48 S37A limits assumed): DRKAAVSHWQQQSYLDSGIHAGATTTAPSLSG
T1 sequence (Q9Y297 1-569 isoform Q9Y297-2, stated change not applied): as the sequence (Q9Y297 1-569 isoform Q9Y297-2, stated change not applied) above
T1 sequence (P63208 whole entry partner, the tested form may be a part): as the sequence (P63208 whole entry partner) above
T1 sequence (P35222 17-48 S33E/S37A limits assumed): as the sequence (P35222 17-48 S37A limits assumed) above, with S17E counted along it
T2 sequence (P35222 whole entry S33E/S37A): as the sequence (P35222 whole entry S37A) above, with S33E counted along it
T2 sequence (Q9Y297 whole entry, stated change not applied): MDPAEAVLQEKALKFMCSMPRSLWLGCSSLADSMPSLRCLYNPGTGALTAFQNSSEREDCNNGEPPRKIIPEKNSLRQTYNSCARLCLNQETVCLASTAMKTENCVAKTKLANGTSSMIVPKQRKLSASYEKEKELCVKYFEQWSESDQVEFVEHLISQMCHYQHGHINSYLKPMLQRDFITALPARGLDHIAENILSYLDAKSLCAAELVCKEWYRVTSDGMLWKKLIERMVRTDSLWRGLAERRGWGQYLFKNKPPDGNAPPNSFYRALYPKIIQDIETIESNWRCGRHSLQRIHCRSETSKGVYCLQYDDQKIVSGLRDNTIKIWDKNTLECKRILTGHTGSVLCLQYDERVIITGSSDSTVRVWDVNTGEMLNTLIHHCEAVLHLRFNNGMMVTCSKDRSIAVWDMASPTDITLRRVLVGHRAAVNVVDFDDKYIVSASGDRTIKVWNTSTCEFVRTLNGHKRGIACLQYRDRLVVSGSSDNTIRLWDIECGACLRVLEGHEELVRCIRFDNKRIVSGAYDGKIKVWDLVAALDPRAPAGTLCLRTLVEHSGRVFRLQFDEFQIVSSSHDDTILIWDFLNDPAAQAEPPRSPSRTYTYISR
T2 sequence (P63208 whole entry partner): as the sequence (P63208 whole entry partner) above
T3 sequence (P35222 whole entry S33E/S37A): as the sequence (P35222 whole entry S37A) above, with S33E counted along it
T3 sequence (Q9Y297 whole entry, stated change not applied): as the sequence (Q9Y297 whole entry, stated change not applied) above
T3 sequence (P63208 whole entry partner): as the sequence (P63208 whole entry partner) above
T3 sequence (Q13616 whole entry partner): as the sequence (Q13616 whole entry partner) above
T3 sequence (P62877 whole entry partner): as the sequence (P62877 whole entry partner) above
T3 sequence (Q15843 1-76 partner limits assumed): as the sequence (Q15843 1-76 partner limits assumed) above

In the case of `N#Cc1cccc2c1CN(C(=O)c1c(Sc3c(Cl)cccc3Cl)cc(C(F)(F)F)[nH]c1=O)C2` [NRX-252114], the EC50 [1] is reported as 1100 ± 30 nM, the “interaction of S33E/S37A β-catenin with endogenous β-TrCP in cell lysate” value [2] is reported as “dose-dependent interaction” and the “concentration at which degradation of S33E/S37A mutant β-catenin starts” value [3] is reported as ~ 50 μM. For the same compound, the “ubiquitylation of full-length Ser33/S37A β-catenin, comparison of enhancers” value [4] was “higher degree of ubiquitylation than NRX-103094”, the “level of ubiquitylation of full-length Ser33/S37A β-catenin” value ([4]; 40 μM compound) was “approaches that of WT full-length protein” and the “enhancement in PPI binding affinity” value ([5]; 20 μM NRX-252114) was over 500 fold. For the same compound, the Kd ([5]; read-out: binding affinity of non-phosphorylated peptide) was 180 nM.
